Structures can show the parent of a compound that is named as a salt.
What was measured:
[1] = test system: Streptococcus pneumoniae ATCC49619; test: MIC by Agar Dilution Test or Microdilution Test (CLSI M7-A7); type: cell-based; conditions: in vitro, strain ATCC49619, read-out: MIC against Streptococcus pneumoniae ATCC49619
Procedure: (§1) The in vitro activity against aerobic bacteria was determined by Agar Dilution Test or Microdilution Test according to the Clinical and Laboratory Standards Institute (CLSI, former NCCLS) Document M7-A7 Vol. 26, No. 2: “Methods for Dilution Antimicrobial Susceptibility Tests for Bacteria that Grow Aerobically—Approved Standard; Seventh Edition (2006)”; and the test against anaerobic bacteria was performed according to the Clinical and Laboratory Standards Institute (CLSI, former NCCLS), Document, M11-A6, Vol. 24, No. 2: “Methods for Antimicrobial Susceptibility Testing of Anaerobic Bacteria—Approved Standard; Sixth Edition (2004)” and the in vivo activity was tested by the septicemia mouse model against Staphylococcus aureus.

[2] = test system: Staphylococcus aureus ATCC49951; test: as above; type: cell-based; conditions: in vitro, strain ATCC49951, read-out: MIC against Staphylococcus aureus ATCC49951
Procedure: as §1

C=C[C@]1(C)C[C@@H](OC(=O)CSC2CCC(N)CCC2O)[C@]2(C)C(C)CCC3(CCC(=O)C32)[C@@H](C)C1O (mixture of isomers) [Example 12, 14-O-{[(1R, 2R, 5R)-5-Amino-2-hydroxy-cycloheptylsulfanyl]-acetyl}-mutilin hydrochloride and the (1S, 2S, 5S), (1R, 2R, 5S), (1S, 2S, 5R) diastereomers thereof]
MIC [1]: ≤ 2 µg/mL | MIC [2]: ≤ 2 µg/mL

From patent US9278920B2, “Pleuromutilin derivatives for use in the treatment of diseases mediated by microbes” (Nabriva Therapeutics AG, priority 2010, dated 2016)
